Among the test systems are COLO 205 colon; UACC-257 melanoma; RXF 393 renal; CCRF-CEM leukemia; CAKI-1 renal; EKVX NSCLC; LOX IMVI melanoma; HCC-2998 colon; OVCAR-8 ovarian; SR leukemia.
What all share (assay): NCI-60 cell line screen, 48 h

Our source for the TGI and GI50 values is PubChem BioAssay (NCI).

Where “and” joins values, the source holds several entries; their conditions need not be identical. Equal values may be shown once.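 These data come from cells grown in 96-well plates and exposed to compound for 48 hours at five concentrations. GI50 = concentration required for 50% inhibition of growth. TGI: total growth inhibition.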

Consider `COC(=O)C(=O)C(C(=O)C(=O)Nc1cccc(C(C)=O)c1)c1nc2ccccc2[nH]c1=O` (stereo not given), for which the TGI in the test on COLO 205 colon, in the test on UACC-257 melanoma, in the test on RXF 393 renal, in the test with CCRF-CEM leukemia, in the test with CAKI-1 renal and in the test on EKVX NSCLC was over 100 µM in each case. In addition, the TGI in the test on LOX IMVI melanoma and in the test on HCC-2998 colon was over 100 µM throughout.
In the case of `CCOP(=O)(OCC)OC(C#N)c1ccc(-c2ccccc2)cc1` (stereo not given), the TGI in the test on COLO 205 colon was 32.4 µM; with UACC-257 melanoma, 36.8 µM; in the test on OVCAR-8 ovarian, 37.4 µM; in the test on CCRF-CEM leukemia it was 49.7 µM; in the test on CAKI-1 renal, 47.6 µM; in the test on EKVX NSCLC it was over 100 µM. The TGI in the test with LOX IMVI melanoma is 29.1 µM; in the test with HCC-2998 colon, 81.7 µM; with SR leukemia it was 59 µM.
In the case of `Cc1cc(Cl)ccc1Nc1nc(C(F)(F)F)ccc1C(=O)N/N=C/c1ccc([N+](=O)[O-])cc1`, the GI50 in the test with COLO 205 colon is 1.75 µM; with UACC-257 melanoma it was 1.38 µM; in the test on OVCAR-8 ovarian it was 1.15 µM; in the test with RXF 393 renal it was 0.781 µM; in the test with CCRF-CEM leukemia it was 0.144 µM; in the test with CAKI-1 renal, 2.24 µM. The GI50 in the test with EKVX NSCLC is 2.37 µM; in the test with LOX IMVI melanoma, 1.16 µM; in the test on HCC-2998 colon, 1.43 µM. The TGI is 3.64 µM in the test with COLO 205 colon; 5.11 µM in the test on UACC-257 melanoma; 3.22 µM in the test with RXF 393 renal; 0.526 µM with CCRF-CEM leukemia; 11.4 µM in the test on CAKI-1 renal; over 29.7 µM in the test with EKVX NSCLC. In the test on HCC-2998 colon, the TGI came to 4.28 µM.
In the case of `O=c1cccc(C2CC(CO)C3CCCCN3C2)[nH]1` (stereo not given), the TGI in the test on COLO 205 colon, in the test on UACC-257 melanoma, in the test on OVCAR-8 ovarian, in the test with CCRF-CEM leukemia, in the test with CAKI-1 renal and with EKVX NSCLC was over 100 µM throughout. For the same compound, the TGI in the test on LOX IMVI melanoma and with HCC-2998 colon was over 100 µM each time.
In the case of `COC(=O)[C@]12CCC(C)[C@H](C)[C@H]1C1=CCC3[C@@]4(C)CC[C@H](OC(C)=O)C(C)(C)C4CC[C@@]3(C)C1(C)C(O)C2` (stereo not given in full), the TGI in the test with COLO 205 colon, with UACC-257 melanoma, in the test on OVCAR-8 ovarian, in the test with CCRF-CEM leukemia, with CAKI-1 renal and in the test on EKVX NSCLC was over 100 µM throughout. For the same compound, the TGI with LOX IMVI melanoma, in the test with HCC-2998 colon and with SR leukemia was over 100 µM in each case.
Consider `C/C(=N\N(c1ccccc1)c1ccccc1)c1c(O)cc(C)oc1=O`, for which the TGI in the test on UACC-257 melanoma, with OVCAR-8 ovarian, in the test on CCRF-CEM leukemia, with CAKI-1 renal, in the test with EKVX NSCLC and in the test with LOX IMVI melanoma was over 100 µM in each case. In addition, the TGI in the test on HCC-2998 colon and in the test on SR leukemia was over 100 µM each time.
For the compound `Cc1ccc(-c2cc(-c3ccccc3)c(C#N)c(=O)n2C2OC(CO)C(O)C(O)C2O)cc1` (stereo not given), the TGI in the test with COLO 205 colon, with UACC-257 melanoma, with OVCAR-8 ovarian, with RXF 393 renal, with CCRF-CEM leukemia and in the test on EKVX NSCLC was over 100 µM throughout. For the same compound, the TGI in the test with LOX IMVI melanoma and with HCC-2998 colon was over 100 µM each time.
Turning to `COc1cc2ncnc(Nc3ccc(F)c(Cl)c3)c2cc1NC(=O)/C=C/CN1CCCCC1`, the GI50 is 1.68 µM and 2 µM in the test with COLO 205 colon; 1.66 µM and 1.79 µM in the test with UACC-257 melanoma; 1.28 µM and 1.64 µM with OVCAR-8 ovarian; 0.919 µM and 0.89 µM in the test on RXF 393 renal; 1.01 µM and 2.03 µM in the test on CCRF-CEM leukemia; 0.00274 µM with EKVX NSCLC. The GI50 is 1.75 µM and 1.69 µM in the test with LOX IMVI melanoma; 1.97 µM and 1.75 µM with HCC-2998 colon. The TGI is 3.43 µM and 4.18 µM in the test with COLO 205 colon; 3.39 µM and 3.51 µM with UACC-257 melanoma; 5.35 µM and > 6.21 µM in the test with OVCAR-8 ovarian; 2.55 µM and 2.94 µM in the test with RXF 393 renal; 5.7 µM and 8 µM with CCRF-CEM leukemia; 2.81 µM and 3.43 µM in the test on CAKI-1 renal. In addition, the TGI is over 10 µM in the test on EKVX NSCLC; 3.27 µM and 3.24 µM in the test on LOX IMVI melanoma; 4.38 µM and 4.29 µM in the test on HCC-2998 colon.
In the case of `CCOC(=O)c1cc(/C=C/C(C)=C/C(=O)OC)oc1C`, the TGI in the test with COLO 205 colon, in the test on UACC-257 melanoma, with OVCAR-8 ovarian, in the test with CCRF-CEM leukemia, in the test on CAKI-1 renal and in the test with EKVX NSCLC was over 100 µM each time. Further, the TGI with LOX IMVI melanoma and in the test on SR leukemia was over 100 µM in each case.
In the case of `CC1C(=O)OCC2=CCN3CCC(OC(=O)C(C)C1(C)O)C23` (stereo not given), the TGI in the test on COLO 205 colon, in the test on UACC-257 melanoma, with OVCAR-8 ovarian, in the test with CCRF-CEM leukemia, in the test on CAKI-1 renal and in the test on EKVX NSCLC was over 100 µM throughout. Moreover, the TGI with LOX IMVI melanoma and in the test with HCC-2998 colon was over 100 µM in each case.
On to `CC1=C(C(=O)Nc2cccc(Cl)c2)C(c2ccccc2F)C(C(=O)Nc2cccc(Cl)c2)=C(C)N1`, for which the TGI in the test with COLO 205 colon came out at 26.3 µM; with UACC-257 melanoma it was 22.3 µM; in the test with OVCAR-8 ovarian, 46.9 µM; in the test with RXF 393 renal, 22.4 µM; with CCRF-CEM leukemia, 26.2 µM; in the test on CAKI-1 renal it was 35.9 µM. The figures for the TGI with EKVX NSCLC, with LOX IMVI melanoma and with HCC-2998 colon were 27.5 µM, 21.1 µM and 21 µM, respectively.
As for `Nc1ccccc1C#C/C=C\C#Cc1ccccc1`, the GI50 in the test with COLO 205 colon is 14.9 µM; in the test on UACC-257 melanoma, 27.7 µM; with OVCAR-8 ovarian, 48 µM; in the test with RXF 393 renal, 29.9 µM; in the test with CCRF-CEM leukemia it was 0.804 µM; in the test with CAKI-1 renal, 1.44 µM. In addition, the figures for the GI50 in the test on EKVX NSCLC and in the test on LOX IMVI melanoma were 15.3 µM and 10.3 µM, respectively. Moreover, the TGI with COLO 205 colon was 29.3 µM; with UACC-257 melanoma, over 100 µM; in the test with OVCAR-8 ovarian, over 100 µM; with RXF 393 renal, over 100 µM; in the test with CCRF-CEM leukemia it was 29.9 µM; in the test with CAKI-1 renal, 8.35 µM. Further, the TGI with EKVX NSCLC is 41.1 µM; in the test with LOX IMVI melanoma, 24.1 µM.
In the case of `Cc1cc(S(=O)(=O)NC#N)c(S/C(=N\Nc2ccc([N+](=O)[O-])cc2)c2ccc(Cl)cc2)cc1Cl`, the GI50 with COLO 205 colon is 15.2 µM; with UACC-257 melanoma, over 100 µM; with OVCAR-8 ovarian it was 31.7 µM; in the test with RXF 393 renal it was 34.4 µM; with CCRF-CEM leukemia, 32.1 µM; with CAKI-1 renal, 36.1 µM. Further, the GI50 is 20.2 µM in the test with EKVX NSCLC and 30.1 µM in the test with LOX IMVI melanoma. Further, the TGI in the test with COLO 205 colon was 30.7 µM; in the test on UACC-257 melanoma, over 100 µM; in the test on OVCAR-8 ovarian, over 100 µM; in the test with RXF 393 renal, over 100 µM; in the test on CCRF-CEM leukemia it was over 100 µM; in the test with CAKI-1 renal, over 100 µM. Also, the TGI is 70.2 µM in the test on EKVX NSCLC and over 100 µM with LOX IMVI melanoma.
